Measured values as given in the supplement of paper PMC4862054.

system: DU-4475; assay: normalised response (% of control), CellTiter-Glo; higher = more viable cells (100 = DMSO, 0 = benzethonium chloride kill control); settings: incubation time: 72 h
Outline: (§1)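 Each value is the plate-normalised signal at one concentration of the series. Breast cancer cell lines (20 µl suspension) were incubated 72 h in 384-well plates with compound at 5 concentrations in 10-fold steps over a compound-specific 10,000-fold range. CellTox Green and then CellTiter-Glo were read, and each plate was scaled to 0.1 % DMSO (100) and a positive kill control (0).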

In order of rising normalised response:
1. CC[C@H](C)C(=O)O[C@H]1C[C@H](O)C=C2C=C[C@H](C)[C@H](CC[C@@H](O)C[C@@H](O)CC(=O)O)[C@H]21 [Pravastatin] (1000 nM)  82.1%
2. Nc1nc2[nH]cc(CCc3ccc(C(=O)N[C@@H](CCC(=O)O)C(=O)O)cc3)c2c(=O)[nH]1 [Pemetrexed] (1000 nM)  89.5%
3. O=C(O)C1(C(=O)O)CCC1.[NH2-].[NH2-].[Pt+2] [Carboplatin] (1000 nM)  93.9%
4. O=C(O)C(=O)O.[NH-][C@@H]1CCCC[C@H]1[NH-].[Pt+2] [Oxaliplatin] (1000 nM)  94.4%
5. Cc1cnc(NC(=O)Nc2cc(Br)c(C)cc2OC[C@@H]2CNCCO2)cn1 [Rabusertib] (100 nM)  99.1%
6. COc1cc2nccc(Oc3ccc(NC(=O)Nc4cc(C)on4)c(Cl)c3)c2cc1OC [Tivozanib] (1000 nM)  101%

system: CAL-85-1; assay: normalised response (% of control), CellTox Green; higher = less cell death (100 = DMSO, 0 = benzethonium chloride kill control); settings: incubation time: 72 h
Outline: as §1

In order of rising normalised response:
1. O=C(Cc1ccc(-c2ccc(OCCN3CCOCC3)cc2)cn1)NCc1ccccc1 [KX2-391] (1000 nM)  68.1%
2. CC[C@H](C)C(=O)O[C@H]1C[C@H](O)C=C2C=C[C@H](C)[C@H](CC[C@@H](O)C[C@@H](O)CC(=O)O)[C@H]21 [Pravastatin] (1000 nM)  93.4%
3. COc1cc2nccc(Oc3ccc(NC(=O)Nc4cc(C)on4)c(Cl)c3)c2cc1OC [Tivozanib] (1000 nM)  95.5%
4. O=C(O)C(=O)O.[NH-][C@@H]1CCCC[C@H]1[NH-].[Pt+2] [Oxaliplatin] (1000 nM)  102%
5. Cc1cnc(NC(=O)Nc2cc(Br)c(C)cc2OC[C@@H]2CNCCO2)cn1 [Rabusertib] (100 nM)  102%
6. C=CCc1cccc(/C=N/NC(=O)CN2CCN(Cc3ccccc3)CC2)c1O [PAC-1] (1000 nM)  105%
7. Nc1nc2[nH]cc(CCc3ccc(C(=O)N[C@@H](CCC(=O)O)C(=O)O)cc3)c2c(=O)[nH]1 [Pemetrexed] (1000 nM)  105%
8. Oc1ncc(N(CCCl)CCCl)c(O)n1 [Uracil mustard] (1000 nM)  115%
9. O=C(O)C1(C(=O)O)CCC1.[NH2-].[NH2-].[Pt+2] [Carboplatin] (1000 nM)  117%

system: MFM-223; assay: as above; settings: incubation time: 72 h
Outline: as §1

In order of falling normalised response:
1. Nc1nc2[nH]cc(CCc3ccc(C(=O)N[C@@H](CCC(=O)O)C(=O)O)cc3)c2c(=O)[nH]1 [Pemetrexed] (1000 nM)  103%
2. C=CCc1cccc(/C=N/NC(=O)CN2CCN(Cc3ccccc3)CC2)c1O [PAC-1] (1000 nM)  102%
3. Oc1ncc(N(CCCl)CCCl)c(O)n1 [Uracil mustard] (1000 nM)  102%
4. COc1cc2nccc(Oc3ccc(NC(=O)Nc4cc(C)on4)c(Cl)c3)c2cc1OC [Tivozanib] (1000 nM)  102%
5. CC[C@H](C)C(=O)O[C@H]1C[C@H](O)C=C2C=C[C@H](C)[C@H](CC[C@@H](O)C[C@@H](O)CC(=O)O)[C@H]21 [Pravastatin] (1000 nM)  98.5%
6. O=C(O)C1(C(=O)O)CCC1.[NH2-].[NH2-].[Pt+2] [Carboplatin] (1000 nM)  89.6%
7. O=C(O)C(=O)O.[NH-][C@@H]1CCCC[C@H]1[NH-].[Pt+2] [Oxaliplatin] (1000 nM)  85.6%
8. O=C(Cc1ccc(-c2ccc(OCCN3CCOCC3)cc2)cn1)NCc1ccccc1 [KX2-391] (1000 nM)  44.2%

system: MCF-10A; assay: as above; settings: incubation time: 72 h
Outline: as §1

In order of rising normalised response:
1. O=C(Cc1ccc(-c2ccc(OCCN3CCOCC3)cc2)cn1)NCc1ccccc1 [KX2-391] (1000 nM)  38.9%
2. Oc1ncc(N(CCCl)CCCl)c(O)n1 [Uracil mustard] (1000 nM)  102%
3. Nc1nc2[nH]cc(CCc3ccc(C(=O)N[C@@H](CCC(=O)O)C(=O)O)cc3)c2c(=O)[nH]1 [Pemetrexed] (1000 nM)  103%
4. Cc1cnc(NC(=O)Nc2cc(Br)c(C)cc2OC[C@@H]2CNCCO2)cn1 [Rabusertib] (100 nM)  105%
5. COc1cc2nccc(Oc3ccc(NC(=O)Nc4cc(C)on4)c(Cl)c3)c2cc1OC [Tivozanib] (1000 nM)  105%
6. O=C(O)C(=O)O.[NH-][C@@H]1CCCC[C@H]1[NH-].[Pt+2] [Oxaliplatin] (1000 nM)  107%
7. CC[C@H](C)C(=O)O[C@H]1C[C@H](O)C=C2C=C[C@H](C)[C@H](CC[C@@H](O)C[C@@H](O)CC(=O)O)[C@H]21 [Pravastatin] (1000 nM)  108%
8. C=CCc1cccc(/C=N/NC(=O)CN2CCN(Cc3ccccc3)CC2)c1O [PAC-1] (1000 nM)  112%
9. O=C(O)C1(C(=O)O)CCC1.[NH2-].[NH2-].[Pt+2] [Carboplatin] (1000 nM)  115%

system: HCC1143; assay: as above; settings: incubation time: 72 h
Outline: as §1

In order of falling normalised response:
1. C=CCc1cccc(/C=N/NC(=O)CN2CCN(Cc3ccccc3)CC2)c1O [PAC-1] (1000 nM)  119%
2. Oc1ncc(N(CCCl)CCCl)c(O)n1 [Uracil mustard] (1000 nM)  117%
3. Nc1nc2[nH]cc(CCc3ccc(C(=O)N[C@@H](CCC(=O)O)C(=O)O)cc3)c2c(=O)[nH]1 [Pemetrexed] (1000 nM)  115%
4. O=C(Cc1ccc(-c2ccc(OCCN3CCOCC3)cc2)cn1)NCc1ccccc1 [KX2-391] (1000 nM)  113%
5. O=C(O)C(=O)O.[NH-][C@@H]1CCCC[C@H]1[NH-].[Pt+2] [Oxaliplatin] (1000 nM)  101%
6. O=C(O)C1(C(=O)O)CCC1.[NH2-].[NH2-].[Pt+2] [Carboplatin] (1000 nM)  101%
7. Cc1cnc(NC(=O)Nc2cc(Br)c(C)cc2OC[C@@H]2CNCCO2)cn1 [Rabusertib] (100 nM)  97.3%
8. COc1cc2nccc(Oc3ccc(NC(=O)Nc4cc(C)on4)c(Cl)c3)c2cc1OC [Tivozanib] (1000 nM)  89.3%
9. CC[C@H](C)C(=O)O[C@H]1C[C@H](O)C=C2C=C[C@H](C)[C@H](CC[C@@H](O)C[C@@H](O)CC(=O)O)[C@H]21 [Pravastatin] (1000 nM)  59%
